Tests used:
CDK2/Cyclin E2 = target: T1, CDK2/Cyclin E2 (Homo sapiens, UniProt P24941); assay: CDK2/CyclinE2 Enzymatic Activity Assay (TR-FRET); assay type: biochemical; conditions: ATP 1 mM final, read-out: CDK2_E1 IC50
T1 construct: Recombinant protein complex CDK2/Cyclin E2, expressed from insect cell, was purchased from ProQinase
Protocol: CDK2/CyclinE2 Enzymatic Activity Assay
The inhibitory activity of compounds was evaluated in vitro using TR-FRET assay with white 384-well low volume microplate (Greiner Bio-One). CDK2/Cyclin E2 catalyzed phosphorylation of peptide in the presence and absence of compounds was measured and used in IC50 determination. Recombinant protein complex CDK2/Cyclin E2, expressed from insect cell, was purchased from ProQinase. Testing compounds were dissolved in DMSO at 1 mM and tested in 9-dose IC50 mode. The reaction mixture was prepared by mixing CDK2/CyclinE2 (1 nM final), ULight-4E-BP1 (50 nM final, Perkinelmer, TRF0128-D), and ATP (1 mM final) in assay buffer (20 mM of HEPES pH 7.4, 1 mM of EGTA, 0.05% BSA, 0.005% Tween 20, and 1 mM TCEP). The compound of interest in DMSO was added to each well in 3-fold serial dilution by dispenser (TECAN D300E) to make a 9.9 μL of reaction mixture. After 20 minutes preincubation at room temperature, 0.1 μL MgCl2 (10 mM final) was added to initiate the reaction. Following a 45 minute incubation at 37° C., the reaction was stopped by addition of 2 μL of quenching buffer consisting of Lance detection buffer (Perkinelmer CR97-100C), LANCE Ultra Europium-anti-P-4E-BP1 (Perkinelmer, TRF0216-D), EDTA, and incubated at room temperature for additional 60 minutes in the dark. The reaction signal was measured by Envision multimode plate reader (PerkinElmer, 2102-0010). IC50 values were determined by fitting the data to the standard 4 parameters with Hill Slope using GraphPad Prism software.

OVCAR3 p-RB = assay: pRB ICW Assay in OVCAR3 Cells; assay type: cell-based; conditions: Homo sapiens, OVCAR-3, incubated with compound for 2 hours
Protocol: pRB ICW Assay in OVCAR3 Cells
OVCAR3 cells were maintained in RPMI (Corning, Catalog #: 10-040-CV) supplemented with 10% v/v FBS (Gibco, Catalog #: 26140-079), 1% v/v Penicillin Streptomycin (Gibco, Catalog #15140-122.) OVCAR3 cells grown at log phase were trypsinized, counted, and resuspended in fresh medium to reach a final density of 6.7e4 cells/mL and 75 μL of culture were dispensed into a 384-well plate (Falcon, cat #353962) using a Multidrop Combi dispenser (Thermo Scientific). The next day, compounds were dispensed as a 9-point, ½ log serial dilution using a Tecan digital dispenser (D300e), and cells were incubated with compound for 2 hours in a humidified incubator at 37° C. A reference compound at a final concentration of 10 μM was used as a control for maximum inhibition. Each compound was tested in duplicate for each experiment. At the end of the incubation, […] (Electron Microscopy, cat #15710) was slowly added to each well and the plate was incubated at room temperature (RT) for 30 minutes to fix cells. Cells were then permeabilized by incubating with 50 μL/well of wash buffer (1×PBS with 0.1% Triton X-100) 5×5 minutes, followed by 1 hour blocking with 30 μL/well of Odyssey blocking buffer (Li-COR, cat #927-40000), at RT. Anti-phosphor RB antibody (Cell signaling 8516S) was diluted 1:1000 in Odyssey blocking buffer and 20 μL was added to all wells and incubated overnight in 4° C. with gently rocking. The next day, cells were washed 5×5 min with 50 μL/well of wash buffer, followed with 1 hour incubation with secondary antibody and DRAQ5 diluted in Odyssey blocking buffer (1:500 dilution for secondary antibody and 1:2000 dilution for DRAQ5), 5×5 min washes, and one last wash with water. Plates were dried in 37° C. oven for 5 minutes and scanned using Li-COR Odyssey CLx imaging system to acquire intensities at 700 and 800 nm channels.

For CC(C)(O)c1cnc(-c2nc(NC3CCN(S(C)(=O)=O)CC3)ncc2C(F)(F)F)s1 [Example 95, 2-(2-(2-((1-(methylsulfonyl)piperidin-4-yl)amino)-5-(trifluoromethyl)pyrimidin-4-yl)thiazol-5-yl)propan-2-ol], the IC50 (CDK2/Cyclin E2) was no more than 0.1 µM and the IC50 (OVCAR3 p-RB) was 0.1 to 0.5 µM.
CC(C)(O)c1cnc(-c2nc(N[C@H]3CCN(S(C)(=O)=O)C[C@H]3F)ncc2C(F)(F)F)s1 [Example 96, 2-(2-(2-(((3R,4S)-3-fluoro-1-(methylsulfonyl)piperidin-4-yl)amino)-5-(trifluoromethyl)pyrimidin-4-yl)thiazol-5-yl)propan-2-ol] was tested, and the IC50 (CDK2/Cyclin E2) was no more than 0.1 µM and the IC50 (OVCAR3 p-RB) was no more than 0.1 µM.
CC(C)(O)c1cnc(-c2nc(N[C@@H]3CCN(S(C)(=O)=O)C[C@H]3F)ncc2C(F)(F)F)s1 [Example 97, 2-(2-(2-(((3R,4R)-3-fluoro-1-(methylsulfonyl)piperidin-4-yl)amino)-5-(trifluoromethyl)pyrimidin-4-yl)thiazol-5-yl)propan-2-ol] gave an IC50 (CDK2/Cyclin E2) of no more than 0.1 µM and an IC50 (OVCAR3 p-RB) of no more than 0.1 µM.
Work on Cn1cnc(S(=O)(=O)N2CCC(Nc3ncc(C(F)(F)F)c(-c4ncc(C(C)(C)O)s4)n3)CC2)c1 [Example 98, 2-(2-(2-((1-((1-methyl-1H-imidazol-4-yl)sulfonyl)piperidin-4-yl)amino)-5-(trifluoromethyl)pyrimidin-4-yl)thiazol-5-yl)propan-2-ol] yielded an IC50 (CDK2/Cyclin E2) of no more than 0.1 µM and an IC50 (OVCAR3 p-RB) of no more than 0.1 µM.
With Cn1cc(S(=O)(=O)N2CCC(Nc3ncc(C(F)(F)F)c(-c4ncc(C(C)(C)O)s4)n3)CC2)cn1 [Example 99, 2-(2-(2-((1-((1-methyl-1H-pyrazol-4-yl)sulfonyl)piperidin-4-yl)amino)-5-(trifluoromethyl)pyrimidin-4-yl)thiazol-5-yl)propan-2-ol] the IC50 (CDK2/Cyclin E2) was no more than 0.1 µM and the IC50 (OVCAR3 p-RB) was 0.1 to 0.5 µM.
For Cn1cc(S(=O)(=O)N2CC[C@@H](Nc3ncc(C(F)(F)F)c(-c4ncc(C(C)(C)O)s4)n3)[C@H](F)C2)cn1 [Example 101, 2-(2-(2-(((3R,4R)-3-fluoro-1-((1-methyl-1H-pyrazol-4-yl)sulfonyl)piperidin-4-yl)amino)-5-(trifluoromethyl)pyrimidin-4-yl)thiazol-5-yl)propan-2-ol], the IC50 (CDK2/Cyclin E2) was no more than 0.1 µM and the IC50 (OVCAR3 p-RB) was no more than 0.1 µM.
With CC(O)(c1cnc(-c2nc(NC3CCN(S(C)(=O)=O)CC3)ncc2C(F)(F)F)s1)C(F)F (stereo not shown) [Example 102, 1,1-difluoro-2-(2-(2-((1-(methylsulfonyl)piperidin-4-yl)amino)-5-(trifluoromethyl)pyrimidin-4-yl)thiazol-5-yl)propan-2-ol] the IC50 (CDK2/Cyclin E2) was no more than 0.1 µM and the IC50 (OVCAR3 p-RB) was no more than 0.1 µM.
In the case of C[C@@H]1CN(S(=O)(=O)c2cnn(C)c2)CC[C@@H]1Nc1ncc(C(F)(F)F)c(-c2ncc(C(C)(O)C(F)(F)F)s2)n1 (stereo partly drawn) [Example 105, 1,1,1-trifluoro-2-(2-(2-(((3R,4S)-3-methyl-1-((1-methyl-1H-pyrazol-4-yl)sulfonyl)piperidin-4-yl)amino)-5-(trifluoromethyl)pyrimidin-4-yl)thiazol-5-yl)propan-2-ol], the IC50 (CDK2/Cyclin E2) is reported as no more than 0.1 µM and the IC50 (OVCAR3 p-RB) is reported as no more than 0.1 µM.
With CS(=O)(=O)N1CCC(Nc2ncc(C(F)(F)F)c(-c3ncc(C4(O)CCC4)s3)n2)CC1 [Example 106, 1-(2-(2-((1-(methylsulfonyl)piperidin-4-yl)amino)-5-(trifluoromethyl)pyrimidin-4-yl)thiazol-5-yl)cyclobutan-1-ol] the IC50 (CDK2/Cyclin E2) was no more than 0.1 µM and the IC50 (OVCAR3 p-RB) was 0.1 to 0.5 µM.
Compound Cn1cc(S(=O)(=O)N2CC[C@@H](Nc3ncc(C(F)(F)F)c(-c4ncc(CC(C)(C)O)s4)n3)[C@H](F)C2)cn1 [Example 110, 1-(2-(2-(((3R,4R)-3-fluoro-1-((1-methyl-1H-pyrazol-4-yl)sulfonyl)piperidin-4-yl)amino)-5-(trifluoromethyl)pyrimidin-4-yl)thiazol-5-yl)-2-methylpropan-2-ol] has an IC50 (CDK2/Cyclin E2) of no more than 0.1 µM and an IC50 (OVCAR3 p-RB) of 0.1 to 0.5 µM.
For C[C@@H]1CN(S(=O)(=O)c2cnn(C)c2)CC[C@@H]1Nc1ncc(C(F)(F)F)c(-c2ncc(CC(C)(C)O)s2)n1 [Example 111, 2-methyl-1-(2-(2-(((3R,4S)-3-methyl-1-((1-methyl-1H-pyrazol-4-yl)sulfonyl)piperidin-4-yl)amino)-5-(trifluoromethyl)pyrimidin-4-yl)thiazol-5-yl)propan-2-ol], the IC50 (CDK2/Cyclin E2) was no more than 0.1 µM and the IC50 (OVCAR3 p-RB) was no more than 0.1 µM.
CC(O)c1cnc(-c2nc(NC3CCN(S(C)(=O)=O)CC3)ncc2C(F)(F)F)s1 (stereo not shown) [Example 112, 1-(2-(2-((1-(methylsulfonyl)piperidin-4-yl)amino)-5-(trifluoromethyl)pyrimidin-4-yl)thiazol-5-yl)ethan-1-ol] gave an IC50 (CDK2/Cyclin E2) of no more than 0.1 µM and an IC50 (OVCAR3 p-RB) of no more than 0.1 µM.
CS(=O)(=O)N1CCC(Nc2ncc(C(F)(F)F)c(-c3ncc(C(O)C(F)(F)F)s3)n2)CC1 (stereo not shown) [Example 113, 2,2,2-trifluoro-1-(2-(2-((1-(methylsulfonyl)piperidin-4-yl)amino)-5-(trifluoromethyl)pyrimidin-4-yl)thiazol-5-yl)ethan-1-ol] was tested, and the IC50 (CDK2/Cyclin E2) was no more than 0.1 µM and the IC50 (OVCAR3 p-RB) was no more than 0.1 µM.
For CC(O)c1cnc(-c2nc(N[C@@H]3CCN(S(=O)(=O)c4cnn(C)c4)C[C@H]3F)ncc2C(F)(F)F)s1 (stereo partly drawn) [Example 115, 1-(2-(2-(((3R,4R)-3-fluoro-1-((1-methyl-1H-pyrazol-4-yl)sulfonyl)piperidin-4-yl)amino)-5-(trifluoromethyl)pyrimidin-4-yl)thiazol-5-yl)ethan-1-ol], the IC50 (CDK2/Cyclin E2) was no more than 0.1 µM and the IC50 (OVCAR3 p-RB) was no more than 0.1 µM.
For CC(C)(O)c1sc(-c2nc(N[C@@H]3CCN(S(C)(=O)=O)C[C@H]3F)ncc2C(F)(F)F)cc1C#N [Example 116, 5-(2-(((3R,4R)-3-fluoro-1-(methylsulfonyl)piperidin-4-yl)amino)-5-(trifluoromethyl)pyrimidin-4-yl)-2-(2-hydroxypropan-2-yl)thiophene-3-carbonitrile], the IC50 (CDK2/Cyclin E2) was no more than 0.1 µM and the IC50 (OVCAR3 p-RB) was no more than 0.1 µM.
In the case of Cn1cc(S(=O)(=O)N2CCC(Nc3ncc(C(F)(F)F)c(-c4cc(C#N)c(C(C)(C)O)s4)n3)CC2)cn1 [Example 117, 2-(2-hydroxypropan-2-yl)-5-(2-((1-((1-methyl-1H-pyrazol-4-yl)sulfonyl)piperidin-4-yl)amino)-5-(trifluoromethyl)pyrimidin-4-yl)thiophene-3-carbonitrile], the IC50 (CDK2/Cyclin E2) is reported as no more than 0.1 µM and the IC50 (OVCAR3 p-RB) is reported as no more than 0.1 µM.
C[C@@H]1CN(S(=O)(=O)c2cnn(C)c2)CC[C@@H]1Nc1ncc(C(F)(F)F)c(-c2cc(C#N)c(C(C)(C)O)s2)n1 [Example 118, 2-(2-hydroxypropan-2-yl)-5-(2-(((3R,4S)-3-methyl-1-((1-methyl-1H-pyrazol-4-yl)sulfonyl)piperidin-4-yl)amino)-5-(trifluoromethyl)pyrimidin-4-yl)thiophene-3-carbonitrile] gave an IC50 (CDK2/Cyclin E2) of no more than 0.1 µM and an IC50 (OVCAR3 p-RB) of 0.1 to 0.5 µM.
In the case of Cn1cc(S(=O)(=O)N2CC[C@@H](Nc3ncc(C(F)(F)F)c(-c4cc(C#N)c(C(C)(C)O)s4)n3)[C@H](F)C2)cn1 [Example 119, 5-(2-(((3R,4R)-3-fluoro-1-((1-methyl-1H-pyrazol-4-yl)sulfonyl)piperidin-4-yl)amino)-5-(trifluoromethyl)pyrimidin-4-yl)-2-(2-hydroxypropan-2-yl)thiophene-3-carbonitrile], the IC50 (CDK2/Cyclin E2) is reported as no more than 0.1 µM and the IC50 (OVCAR3 p-RB) is reported as no more than 0.1 µM.
Cc1cnc(N[C@H]2CCN(S(C)(=O)=O)C[C@H]2F)nc1-c1ncc(CC(C)(C)O)s1 [Example 155, 1-(2-(2-(((3R,4S)-3-fluoro-1-(methylsulfonyl)piperidin-4-yl)amino)-5-methylpyrimidin-4-yl)thiazol-5-yl)-2-methylpropan-2-ol] was tested, and the IC50 (OVCAR3 p-RB) was no more than 0.1 µM.

Source: patent US20240150340A1, “CDK Inhibitors And Their Use As Pharmaceuticals” (Prelude Therapeutics Incorporated, priority 2022, published 2024)
